# Measured values: ChEMBL document CHEMBL1201862, “PubChem BioAssay data set” (2004)
#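 Following 48 hours of exposure in 96-well plates, responses at five concentrations were used to interpolate endpoints linearly. The concentration for 50% growth inhibition is given as GI50.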 Activity calls are given as the source filed them. Cut-off read from the data, not from the text of the source: active = GI50 up to about 1.1 µM and inactive = higher.
# Experiments:
# Experiment in all cases: growth of human tumour cells (NCI), 48 h
# A549 = tested on: A549
# ACHN = tested on: ACHN
# COLO 205 = tested on: COLO 205
# HCT-15 = tested on: HCT-15
# KM12 = tested on: KM12
# NCI-H226 = tested on: NCI-H226
# NCI-H460 = tested on: NCI-H460
# NCI/ADR-RES = tested on: NCI/ADR-RES
# OVCAR-4 = tested on: OVCAR-4
# OVCAR-8 = tested on: OVCAR-8
# RPMI-8226 = tested on: RPMI-8226
# SF-295 = tested on: SF-295
# SK-MEL-28 = tested on: SK-MEL-28
# SK-MEL-5 = tested on: SK-MEL-5
# SN12C = tested on: SN12C
# SR = tested on: SR
# T47D = tested on: T47D
# UACC-62 = tested on: UACC-62
# Malme-3M = tested on: Malme-3M
Compound,GI50 (A549),GI50 (ACHN),GI50 (COLO 205),GI50 (HCT-15) [µM],GI50 (KM12),GI50 (NCI-H226),GI50 (NCI-H460),GI50 (NCI/ADR-RES),GI50 (OVCAR-4),GI50 (OVCAR-8),GI50 (RPMI-8226),GI50 (SF-295),GI50 (SK-MEL-28),GI50 (SK-MEL-5),GI50 (SN12C),GI50 (SR),GI50 (T47D),GI50 (UACC-62),GI50 (Malme-3M)
COc1ccc(C2SCC(=O)N2NC(=O)C(C)Oc2ccccc2Cl)cc1 (stereo not drawn),35.5 µM (inactive),38.5 µM (inactive),26.5 µM (inactive),49.8,35.9 µM (inactive),51.6 µM (inactive),70.1 µM (inactive),63.2 µM (inactive),60.7 µM (inactive),61.1 µM (inactive),32.4 µM (inactive),45 µM (inactive),> 100 µM (inactive),24.5 µM (inactive),63.2 µM (inactive),26.1 µM (inactive),27.2 µM (inactive),46 µM (inactive),
Cc1cccc(N2C(=O)C(Cl)=C(Cl)C2=O)c1,> 100 µM (inactive),> 49.1 µM (inactive),> 69 µM (inactive),> 41.7,> 100 µM (inactive),> 100 µM (inactive),> 100 µM (inactive),,> 46.3 µM (inactive),> 100 µM (inactive),> 47.1 µM (inactive),> 100 µM (inactive),> 54.5 µM (inactive),> 100 µM (inactive),> 80.5 µM (inactive),18.2 µM (inactive),,> 64.7 µM (inactive),> 42.1 µM (inactive)
CCOc1cc2c(C(=O)CC)c(O)ccc2o1,> 100 µM (inactive),> 100 µM (inactive),> 67.9 µM (inactive),> 100,> 100 µM (inactive),> 100 µM (inactive),> 100 µM (inactive),,> 40.8 µM (inactive),> 79.6 µM (inactive),> 58.1 µM (inactive),> 100 µM (inactive),> 35.3 µM (inactive),> 39.3 µM (inactive),> 100 µM (inactive),33.7 µM (inactive),,> 37.6 µM (inactive),> 100 µM (inactive)
O=C(CC(=O)c1ccccc1)C(=O)NC12CC3CC(CC(C3)C1)C2,> 54.1 µM (inactive),> 100 µM (inactive),> 45 µM (inactive),> 37.8,> 100 µM (inactive),> 100 µM (inactive),> 40.7 µM (inactive),,> 100 µM (inactive),> 100 µM (inactive),> 45.3 µM (inactive),> 100 µM (inactive),> 100 µM (inactive),> 100 µM (inactive),> 100 µM (inactive),> 100 µM (inactive),,> 100 µM (inactive),> 100 µM (inactive)
COc1cc2cnc3c4cc(O)ccc4ccc3c2cc1OC,> 100 µM (inactive),> 100 µM (inactive),12.9 µM (inactive),> 100,51.4 µM (inactive),26.4 µM (inactive),> 100 µM (inactive),,26.7 µM (inactive),23.6 µM (inactive),> 100 µM (inactive),92.7 µM (inactive),65.6 µM (inactive),> 100 µM (inactive),35.2 µM (inactive),34.2 µM (inactive),,72.4 µM (inactive),51.1 µM (inactive)
O=C1CC(C2(O)C(=O)Nc3ccc([N+](=O)[O-])cc32)c2ccccc21 (stereo not drawn),62.4 µM (inactive),54.1 µM (inactive),25.4 µM (inactive),18.2,35.4 µM (inactive),14.7 µM (inactive),16.3 µM (inactive),,20 µM (inactive),66.4 µM (inactive),20.7 µM (inactive),34.1 µM (inactive),24.8 µM (inactive),27.7 µM (inactive),31.8 µM (inactive),18.2 µM (inactive),,19.5 µM (inactive),40.8 µM (inactive)
